Assay results from US20210221784A1, “COMPOUNDS AND COMPOSITIONS FOR THE TREATMENT OF PAIN” (Université de Strasbourg, priority 2018, published 2021).

What was measured:
C57BF6/N male mice [1] = experiment: Fentanyl-induced hyperalgesia, tail immersion test; assay type: in vivo; details: FIG. 6B
[2] = target: T1, human NPFFR1 (hNPFFR1) receptor (Homo sapiens, UniProt Q9GZQ6); experiment: Human NPFFR1 evaluation using BRET biosensors in HEK-293 T cells; assay type: cell-based; details: hNPFFR1 in HEK-293 T cells, stimulated by EC80 RFRP-3, read-out: IC50 of antagonist activity
T1 construct: expressed in transfected cells; host or cells: HEK-293 T cells, transient co-transfection
T1 sequence (Q9GZQ6 whole entry): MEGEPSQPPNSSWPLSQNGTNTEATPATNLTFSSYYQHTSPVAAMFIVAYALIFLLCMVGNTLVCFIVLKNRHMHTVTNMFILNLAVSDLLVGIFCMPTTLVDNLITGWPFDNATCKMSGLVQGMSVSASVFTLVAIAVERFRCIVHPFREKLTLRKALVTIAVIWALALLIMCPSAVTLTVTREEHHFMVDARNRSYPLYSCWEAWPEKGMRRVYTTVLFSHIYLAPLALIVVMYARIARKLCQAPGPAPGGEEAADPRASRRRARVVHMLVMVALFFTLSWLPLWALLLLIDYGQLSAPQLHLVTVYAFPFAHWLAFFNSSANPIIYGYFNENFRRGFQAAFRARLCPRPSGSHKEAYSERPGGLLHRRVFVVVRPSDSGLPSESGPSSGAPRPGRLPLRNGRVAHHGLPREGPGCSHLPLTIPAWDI
Procedure, shortened: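 HEK-293 T cells transiently co-expressing hNPFFR1, GαoB and a Gi-effector BRET biosensor pair; agonist read after 10 min compound alone, then antagonism after EC80 RFRP-3 for 10 min. IC50 from 20-point curves over 6 logs, duplicates in two independent experiments.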

hNPFF1R = target: T2, hNPFF1R (Homo sapiens, UniProt Q9GZQ6); experiment: Glo Sensor cAMP assay in HEK-293 expressing hNPFF1R; assay type: cell-based; details: HEK-293 cells expressing hNPFF1R; FIG. 7
T2 construct: expressed in transfected cells
T2 sequence (Q9GZQ6 whole entry): as above
Procedure: The functional characterization of the selected compounds was performed by Glo Sensor cAMP kinetic assay, a validated approach for measuring Gαi/s activation by GPCRs (DiRaddo et al., 2014; Gilissen et al., 2015). HEK-Glo cells expressing either NPFF1 or NPFF2 receptors were suspended (10^6 cells per mF) in physiological Hepes buffer (10 mM HEPES, 0.4 mM NaH2PO4, 137.5 mM NaCl, 1.25 mM MgCl2, 1.25 mM CaCl2, 6 mM KCl, 10 mM glucose and 1 mg/mF bovine serum albumin, pH 7.4) supplemented with 1 mM D-Fuciferine. After equilibration for 2 h at 25° C., luminescence levels were recorded in real time in 96-well plates using a Flexstation^R 3 (Molecular Devices, Sunnyvale Calif., USA). Non-specific effect of the different compounds was evaluated in HEK-Glo cells without any recombinant human RF-amide receptors. To test the agonist activity on NPFF1R and NPFF2R, compounds were injected 15 minutes before addition of forskolin (0.5 μM) and readings were pursued for 90 minutes. To evaluate their antagonist properties, compounds were pre-incubated with cells for 15 minutes before prototypical agonists for NPFF1R (RFRP-3) and NPFF2R (NPFF) receptors. According to their preferential coupling to Gi/o proteins, the stimulation of NPFF1R and NPFF2R by agonists was monitored as a dose-dependent reduction in steady-state luminescence levels, reflecting the inhibition of forskolin-induced cAMP accumulation. Experiments were performed at 25° C. in the presence of 0.5 mM IBMX to prevent the degradation of cAMP by phosphodiesterases.

hNPFFR2 = target: T3, hNPFFR2 (Homo sapiens, UniProt Q9Y5X5); experiment: Radioligand binding competition, membranes from CHO cells expressing hNPFFR2; details: 0.015 nM [D-Tyr1[125I], N-MePhe3]-NPFF, 1 hr at 25° C., read-out: NPFF2-R Ki
T3 construct: expressed in transfected cells; membranes
T3 sequence (Q9Y5X5 whole entry): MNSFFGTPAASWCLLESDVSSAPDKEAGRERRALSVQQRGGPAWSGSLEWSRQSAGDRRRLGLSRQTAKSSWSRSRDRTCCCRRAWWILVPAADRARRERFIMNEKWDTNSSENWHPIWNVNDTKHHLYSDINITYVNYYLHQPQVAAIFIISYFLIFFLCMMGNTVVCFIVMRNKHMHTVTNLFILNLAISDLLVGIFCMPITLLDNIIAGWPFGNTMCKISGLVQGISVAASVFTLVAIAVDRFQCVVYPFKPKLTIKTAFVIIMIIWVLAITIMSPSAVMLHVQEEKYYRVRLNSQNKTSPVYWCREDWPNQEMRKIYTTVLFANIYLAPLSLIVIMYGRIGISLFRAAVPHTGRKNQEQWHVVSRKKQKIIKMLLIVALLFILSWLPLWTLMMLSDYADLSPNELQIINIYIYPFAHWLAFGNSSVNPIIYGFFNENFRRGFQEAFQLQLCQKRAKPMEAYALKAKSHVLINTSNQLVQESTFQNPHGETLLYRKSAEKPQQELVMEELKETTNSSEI
Procedure: (§1) Competition experiments with membranes from CHO cells stably expressing hNPFFR1 and hNPFFR2 were performed essentially as described in Elhabazi, K., et al. Neuropharmacology, 2013. 75C, 164-171., Briefly, hNPFFR1 or hNPFFR2 membranes (5 to 10 μg of proteins) were incubated (1 hr at 25° C.; 0.25 mL total volume) with 0.015 nM [D-Tyr1[125I], N-MePhe3]-NPFF (Hartmann Analytic GmbH) in 50 mM HEPES (pH 7.4), 1 mM CaCl2, 1 mM MgCl2 and 0.1% bovine serum albumin. Non-specific binding was determined in the presence of 10 μM RFRP-3. Incubation was terminated by rapid filtration through a 96-well GF/B unifilter apparatus (Perkin Elmer Life and Analytical Sciences, Courtaboeuf, France). Unifilters were washed five times with binding buffer, then dried for 1 h at 65° C. After addition of 40 μL scintillation cocktail (Microscint-O, Perkin Elmer) per well, bound radioactivity was determined on a TopCount scintillation counter (Perkin Elmer).

hNPFFR1 = target: T4, hNPFFR1 (Homo sapiens, UniProt Q9GZQ6); experiment: Radioligand binding competition, membranes from CHO cells expressing hNPFFR1; details: 0.015 nM [D-Tyr1[125I], N-MePhe3]-NPFF, 1 hr at 25° C., read-out: NPFF1-R Ki
T4 construct: expressed in transfected cells; membranes
T4 sequence (Q9GZQ6 whole entry): as the sequence (Q9GZQ6 whole entry) above
Procedure: as §1

C57BF6/N male mice [3] = experiment: Morphine-induced hyperalgesia and tolerance, tail immersion test; assay type: in vivo
C57BF6/N male mice [4] = experiment: Incisional pain model, Von Frey test; assay type: in vivo; details: morphine 2.5 mg/kg sc. alone or 1j 5 mg/kg po alone; FIG. 3B
C57BF6/N male mice [5] = experiment: Neuropathic pain model (chronic constriction injury), Von Frey test; assay type: in vivo; details: morphine 3 mg/kg sc. alone or 1j 5 mg/kg p.o. alone; FIG. 4B
rat = details: repeated administration of opiate analgesics; cited from earlier work
NPFF receptor = details: Simonin et al., PNAS (2006); cited from earlier work

| Compound | IC50 [2] [nM] | Ki (hNPFFR2) [nM] | Ki (hNPFFR1) [nM] | other results |
| --- | --- | --- | --- | --- |
| Cc1ccccc1-c1ccc(N)nc1N [Compound 1c, 3-(o-tolyl)pyridine-2,6-diamine] | 100 to 500 | 30000 | 23 | fentanyl hyperalgesia (hyperalgesia index d1 to d4) (C57BF6/N male mice [1]; 0.2 mg/kg sc. 20 min before fentanyl 4×60 μg/kg sc.): prevented fentanyl hyperalgesia; fentanyl hyperalgesia (hyperalgesia index d1 to d4) (C57BF6/N male mice [1]; 1 mg/kg sc. 20 min before fentanyl 4×60 μg/kg sc.): prevented fentanyl hyperalgesia; antagonist activity: effect on dose response curve of NPVF (RFRP-3), forskolin-stimulated cAMP (hNPFF1R): antagonist activity similar as compound 1j |
| CC(C)Oc1ccccc1-c1ccc(N)nc1N [Compound 2f, 3-(2-isopropoxyphenyl)pyridine-2,6-diamine] | 100 to 500 | 2100 | 11.3 |  |
| CC(C)COc1ccccc1-c1ccc(N)nc1N [Compound 2g, 3-(2-isobutoxyphenyl) pyridine-2,6-diamine] | 100 to 500 | 700 | 9 |  |
| Nc1ccc(-c2ccccc2OC2CCCC2)c(N)n1 [Compound 2i, 3-(2-(cyclopentyloxy)phenyl)pyridine-2,6-diamine] | 100 to 500 | 280 | 4 |  |
| COc1cc(F)ccc1-c1ccc(N)nc1N [Compound 2k, 3-(4-fluoro-2-methoxyphenyl) pyridine-2,6-diamine] | 500 to 1000 | 3200 | 27.6 |  |
| COc1cccc(-c2ccc(N)nc2N)c1OC [Compound 2l, 3-(2,3-dimethoxyphenyl) pyridine-2,6-diamine] | > 1000 | 900 | 26 |  |
| COc1ccc(-c2ccc(N)nc2N)c(OC)c1 [Compound 2m] | > 1000 | 1870 | 45.7 |  |
| CNc1nc(N)ccc1-c1cccc(Cl)c1Cl [Compound 5a, 3-(2,3-dichlorophenyl)-N2-methylpyridine-2,6-diamine] | > 1000 | 2300 | 81.2 |  |
| CCNc1nc(N)ccc1-c1cccc(Cl)c1Cl [Compound 5b, 3-(2,3-dichlorophenyl)-N2-ethylpyridine-2,6-diamine] | 500 to 1000 | 2200 | 79.2 |  |
| Nc1ccc(-c2cccc(Cl)c2Cl)c(NCc2ccccc2)n1 [Compound 5d, N2-benzyl-3-(2,3-dichlorophenyl)pyridine-2,6-diamine] | > 1000 | 1900 | 84 |  |
| CC(C)Nc1nc(N)ccc1-c1cccc(Cl)c1Cl [Compound 5e, 3-(2,3-dichlorophenyl)-N2-isopropylpyridine-2,6-diamine] | > 1000 | 1900 | 250 |  |
| Nc1ccc(-c2cccc(Cl)c2Cl)cn1 [Compound 6a, 5-(2,3-dichlorophenyl)pyridin-2-amine] | > 1000 | 4200 | 577 |  |
| Cc1nc(N)ccc1-c1cccc(Cl)c1Cl [Compound 6b, 5-(2,3-dichlorophenyl)-6-methylpyridin-2-amine] | 500 to 1000 | 2000 | 81.4 |  |
| CCc1nc(N)ccc1-c1cccc(Cl)c1Cl [Compound 6c, 5-(2,3-dichlorophenyl)-6-ethylpyridin-2-amine] | 500 to 1000 | 800 | 25 |  |
| CCc1nc(N)ccc1-c1ccccc1OC [Compound 6d, 6-ethyl-5-(2-methoxyphenyl)pyridin-2-amine] | 100 to 500 | 960 | 15.2 |  |
| COCc1nc(N)ccc1-c1ccccc1OC [Compound 6e, 6-(methoxymethyl)-5-(2-methoxyphenyl)pyridin-2-amine] | > 1000 | 18600 | 461 |  |
| CCCc1nc(N)ccc1-c1ccccc1OC [Compound 6g, 5-(2-methoxyphenyl)-6-propylpyridin-2-amine] | 100 to 500 | 470 | 6.3 |  |
| COc1ccccc1-c1ccc(N)nc1C(C)C [Compound 6h, 6-isopropyl-5-(2-methoxyphenyl)pyridin-2-amine] | 500 to 1000 | 1500 | 35.7 |  |
| COc1ccccc1-c1ccc(N)nc1C1CC1 [Compound 6i, 6-cyclopropyl-5-(2-methoxyphenyl)pyridin-2-amine] | 500 to 1000 | 1400 | 31 |  |
| Cc1ccccc1-c1c(C)cc(N)nc1N [Compound 8b, 4-methyl-3-(o-tolyl)pyridine-2,6-diamine] | > 1000 | 4600 | 183 |  |
| Nc1ccc(Cc2ccccc2)c(N)n1 [Compound 10a, 3-benzylpyridine-2,6-diamine] | > 1000 | 2800 | 76 ± 12 |  |
| Nc1ccc(Cc2ccc(F)cc2)c(N)n1 [Compound 10b, 3-(4-fluorobenzyl)pyridine-2,6-diamine] | > 1000 | 4200 | 122 |  |
| Nc1ccc(Cc2ccc(Cl)cc2)c(N)n1 [Compound 10c, 3-(4-chlorobenzyl)pyridine-2,6-diamine] | 500 to 1000 | 2700 | 56 |  |
| Nc1ccc(Cc2cccc(Cl)c2)c(N)n1 [Compound 10d, 3-(3-chlorobenzyl)pyridine-2,6-diamine] | 500 to 1000 | 900 | 19 |  |
| Nc1ccc(Cc2ccccc2Cl)c(N)n1 [Compound 10e, 3-(2-chlorobenzyl)pyridine-2,6-diamine] | 100 to 500 | 450 | 3.7 |  |
| Nc1ccc(Cc2ccc(Cl)cc2Cl)c(N)n1 [Compound 10f, 3-(2,4-dichlorobenzyl)pyridine-2,6-diamine] | 100 to 500 | 500 | 3.7 |  |
| CN1CC[C@]23c4c5ccc(O)c4O[C@H]2[C@@H](O)C=C[C@H]3[C@H]1C5.Cl [morphine, Morphine hydrochloride, reference compound] |  |  |  | Hyperalgesia index (HI) d1 to d7 (C57BF6/N male mice [3]; daily morphine 10 mg/kg s.c., 1j 5 mg/kg oral or vehicle before morphine, FIG. 2B): −16.2±2; peak of analgesia at day 8 (C57BF6/N male mice [3]; morphine 5 mg/kg s.c. alone or combined with 1j 5 mg/kg p.o., after chronic morphine, FIG. 2C): 9±0.8; peak of analgesia at day 0 (C57BF6/N male mice [3]; morphine 5 mg/kg s.c. alone or combined with 1j 5 mg/kg p.o., FIG. 2C): 17±0.8; mechanical allodynia after paw incision (allodynia index d1-d6), drug alone (C57BF6/N male mice [4]): failed to prevent significantly the mechanical allodynia; mechanical allodynia after CCI (allodynia index d11-d21), drug alone (C57BF6/N male mice [5]): slightly but not significantly prevented the mechanical allodynia |
| N^α-adamantan-1-yl-L-Arg-L-Phe-NH2 acetate [RF9] |  |  |  | antihyperalgesic activity in vivo (rat): reversing hyperalgesia induced by the repeated administration of opiate analgesics; NPFF receptor antagonist potency (NPFF receptor): first nanomolar NPFF receptor antagonist |
